In general, IC50 refers to the concentration that gives 50% inhibition.

Each structure is given as a SMILES string. A value given as a limit tells only on which side of the number the result lay.

What all share (assay type): cell-based
For one assay, the target named is T1, human TLR7 (Homo sapiens, UniProt Q9NYK1).
T1 construct: host or cells: HEK-Blue cells
T1 sequence (Q9NYK1 27-1049): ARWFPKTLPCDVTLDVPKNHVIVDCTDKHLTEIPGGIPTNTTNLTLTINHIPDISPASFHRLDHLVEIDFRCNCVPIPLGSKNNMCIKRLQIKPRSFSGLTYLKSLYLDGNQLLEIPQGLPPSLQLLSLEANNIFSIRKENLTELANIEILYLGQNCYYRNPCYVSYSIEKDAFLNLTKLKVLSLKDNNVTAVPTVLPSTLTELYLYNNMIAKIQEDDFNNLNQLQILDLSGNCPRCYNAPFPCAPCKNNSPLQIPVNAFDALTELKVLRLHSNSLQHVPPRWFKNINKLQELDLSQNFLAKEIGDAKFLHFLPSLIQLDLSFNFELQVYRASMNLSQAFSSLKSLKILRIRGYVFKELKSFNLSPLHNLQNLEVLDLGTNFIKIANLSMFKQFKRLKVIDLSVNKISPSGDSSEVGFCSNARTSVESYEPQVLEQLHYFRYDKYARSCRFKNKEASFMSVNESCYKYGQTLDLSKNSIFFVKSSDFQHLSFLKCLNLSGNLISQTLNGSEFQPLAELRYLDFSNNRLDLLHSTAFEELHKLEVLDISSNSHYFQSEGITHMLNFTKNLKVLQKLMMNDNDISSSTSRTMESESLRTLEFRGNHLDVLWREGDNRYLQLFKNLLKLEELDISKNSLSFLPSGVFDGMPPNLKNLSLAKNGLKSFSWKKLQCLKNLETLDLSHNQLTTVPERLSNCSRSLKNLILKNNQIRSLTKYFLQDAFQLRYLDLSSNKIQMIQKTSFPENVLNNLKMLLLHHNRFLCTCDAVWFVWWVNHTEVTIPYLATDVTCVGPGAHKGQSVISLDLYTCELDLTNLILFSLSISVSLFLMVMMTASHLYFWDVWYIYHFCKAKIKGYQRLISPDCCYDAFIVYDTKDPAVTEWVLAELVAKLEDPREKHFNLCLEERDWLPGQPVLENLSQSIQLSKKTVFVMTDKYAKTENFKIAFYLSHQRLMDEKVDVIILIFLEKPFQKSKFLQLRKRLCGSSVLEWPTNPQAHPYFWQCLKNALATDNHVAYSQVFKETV
Briefly: TLR7 inhibition reporter assay (HEK-Blue cells, SEAP reporter, gardiquimod stimulation). As to conditions: HEK-Blue cells overexpressing human TLR7, SEAP reporter, gardiquimod 7.5 μM. A digest of the protocol: (§1)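 Ligand levels: TLR7 gardiquimod 7.5 μM, TLR8 R848 15.9 μM, TLR9 ODN2006 5 nM, added after 30 min room-temperature compound pre-incubation at 0.05 nM-50 μM. Reporter SEAP read with HEK-Blue Detection reagent after 22 h, 37° C. Inhibition expressed as % reduction relative to agonist-plus-DMSO and known-inhibitor controls.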

The target of a further assay is T2, human TLR8 (Homo sapiens, UniProt Q9NR97).
T2 construct: host or cells: HEK-Blue cells
T2 sequence (Q9NR97 27-1041): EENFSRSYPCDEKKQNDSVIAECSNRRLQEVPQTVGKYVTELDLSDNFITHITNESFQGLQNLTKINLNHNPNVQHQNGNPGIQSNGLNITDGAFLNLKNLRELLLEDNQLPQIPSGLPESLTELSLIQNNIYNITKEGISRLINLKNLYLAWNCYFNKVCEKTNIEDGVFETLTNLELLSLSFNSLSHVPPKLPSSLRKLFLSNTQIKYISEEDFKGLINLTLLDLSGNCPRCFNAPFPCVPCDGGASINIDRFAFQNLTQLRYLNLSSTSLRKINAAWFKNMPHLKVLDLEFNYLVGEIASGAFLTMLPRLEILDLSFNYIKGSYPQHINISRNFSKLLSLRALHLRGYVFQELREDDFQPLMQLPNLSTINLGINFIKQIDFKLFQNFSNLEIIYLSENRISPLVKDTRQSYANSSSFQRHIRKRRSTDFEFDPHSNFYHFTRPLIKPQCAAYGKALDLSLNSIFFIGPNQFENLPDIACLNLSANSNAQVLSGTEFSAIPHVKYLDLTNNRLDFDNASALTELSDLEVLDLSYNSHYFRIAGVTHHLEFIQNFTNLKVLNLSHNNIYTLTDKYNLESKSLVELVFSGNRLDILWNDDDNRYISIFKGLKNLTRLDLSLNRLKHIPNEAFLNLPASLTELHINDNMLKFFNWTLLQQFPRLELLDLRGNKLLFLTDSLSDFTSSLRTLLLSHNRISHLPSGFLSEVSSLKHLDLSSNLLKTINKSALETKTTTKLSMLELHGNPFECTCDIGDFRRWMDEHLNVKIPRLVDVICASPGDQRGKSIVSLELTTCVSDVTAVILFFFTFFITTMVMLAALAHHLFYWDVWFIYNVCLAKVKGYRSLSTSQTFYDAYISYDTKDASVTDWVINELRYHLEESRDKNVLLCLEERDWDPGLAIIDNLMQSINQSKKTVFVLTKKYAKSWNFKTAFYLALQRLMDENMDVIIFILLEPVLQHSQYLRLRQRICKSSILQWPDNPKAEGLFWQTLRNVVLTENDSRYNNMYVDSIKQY
Briefly: TLR8 inhibition reporter assay (HEK-Blue cells, SEAP reporter, R848 stimulation). As to conditions: HEK-Blue cells overexpressing human TLR8, SEAP reporter, R848 15.9 μM. Put shortly: as §1

Another assay addresses T3, human TLR9 (Homo sapiens, UniProt Q9NR96).
T3 construct: host or cells: HEK-Blue cells
T3 sequence (Q9NR96 26-1032): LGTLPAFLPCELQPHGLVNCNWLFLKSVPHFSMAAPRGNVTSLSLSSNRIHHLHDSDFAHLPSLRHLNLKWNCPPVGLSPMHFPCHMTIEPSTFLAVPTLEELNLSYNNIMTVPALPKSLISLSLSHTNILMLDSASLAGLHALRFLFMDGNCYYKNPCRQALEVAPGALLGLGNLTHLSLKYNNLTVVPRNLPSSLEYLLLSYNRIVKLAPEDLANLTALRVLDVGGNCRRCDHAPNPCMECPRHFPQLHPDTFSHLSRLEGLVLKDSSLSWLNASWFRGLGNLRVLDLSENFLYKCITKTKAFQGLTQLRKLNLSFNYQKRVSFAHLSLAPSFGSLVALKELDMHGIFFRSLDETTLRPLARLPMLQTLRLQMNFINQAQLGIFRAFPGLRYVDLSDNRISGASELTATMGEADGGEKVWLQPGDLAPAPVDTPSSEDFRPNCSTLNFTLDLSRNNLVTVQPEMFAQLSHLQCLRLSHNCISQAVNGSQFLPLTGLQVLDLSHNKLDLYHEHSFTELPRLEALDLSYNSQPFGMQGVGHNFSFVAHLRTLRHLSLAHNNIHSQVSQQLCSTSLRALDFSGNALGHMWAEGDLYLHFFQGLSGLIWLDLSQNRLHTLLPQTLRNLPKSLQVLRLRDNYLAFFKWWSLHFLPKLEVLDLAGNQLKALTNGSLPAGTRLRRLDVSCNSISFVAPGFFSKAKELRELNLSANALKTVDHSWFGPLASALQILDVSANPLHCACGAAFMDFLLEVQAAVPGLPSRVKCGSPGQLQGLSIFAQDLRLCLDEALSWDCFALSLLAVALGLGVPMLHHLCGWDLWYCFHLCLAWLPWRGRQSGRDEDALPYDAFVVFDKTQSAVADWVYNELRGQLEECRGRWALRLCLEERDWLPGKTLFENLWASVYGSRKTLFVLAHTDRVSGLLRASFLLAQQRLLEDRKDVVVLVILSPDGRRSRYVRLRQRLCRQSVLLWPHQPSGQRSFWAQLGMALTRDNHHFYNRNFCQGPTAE
Briefly: TLR9 inhibition reporter assay (HEK-Blue cells, SEAP reporter, ODN2006 stimulation). Particulars: HEK-Blue cells overexpressing human TLR9, SEAP reporter, ODN2006 5 nM. Put shortly:
as §1
A general note: Reporter assays use an easily measured gene product as a stand-in for the process of interest.

In the case of `COc1cc(-c2[nH]c3ccc(C4CCC(NC(=O)CN(C)C)CC4)cc3c2C(C)C)cn2ncnc12` (stereo not drawn) [Example 127], the IC50 against human TLR7 turned out to be 2 nM; at human TLR8, 3.2 nM; against human TLR9, 3.16 µM.

In the case of `Cc1cc(-c2[nH]c3ccc(C4CCCN(C(=O)CN5CCOCC5)C4)cc3c2C(C)C)cc(C)n1` (stereo not drawn) [Example 196], the IC50 against human TLR7 was 16 nM; against human TLR8, 84 nM; against human TLR9 it was 31.6 µM.

Regarding `CNCC(=O)N1CCOC(c2ccc3[nH]c(-c4cc(C)c5ncnn5c4)c(C(C)C)c3c2)C1` (stereo not drawn) [Example 337, 1-(2-(3-isopropyl-2-(8-methyl-[1,2,4]triazolo[1,5-a]pyridin-6-yl)-1H-indol-5-yl)morpholino)-2-(methylamino)ethanone], the IC50 against human TLR7 turned out to be 1 nM; on human TLR8 it was 7.1 nM; at human TLR9, 3.28 µM.

For the molecule `Cc1c(-c2[nH]c3ccc(C4CN(Cc5ncn(C)n5)C4)cc3c2C(C)C)cn2cnnc2c1C` [Example 537], the IC50 against human TLR7 was 51 nM; against human TLR8, 40 nM; on human TLR9 it was 27.8 µM.

In the case of `COCCN(C)C1CCC(c2ccc3[nH]c(-c4cc(OC)c5ncnn5c4)c(C(C)C)c3c2)CC1` (single isomer, unassigned) [Example 79], the IC50 worked out at 2 nM on human TLR7, 5.7 nM against human TLR8 and 2.58 µM on human TLR9.

Take `Cc1c(-c2[nH]c3ccc(C4CCC(NCC(=O)N(C)C)CC4)cc3c2C(C)C)cn2cnnc2c1C` (stereo not drawn) [Example 517]: the values for the IC50 against human TLR7, against human TLR8 and on human TLR9 were 5 nM, 42 nM and 2.46 µM, respectively.

Turning to `Cc1c(-c2[nH]c3ccc(C4CC(N(C)C)C4)cc3c2C(C)C)cn2ncnc2c1C` (stereo not drawn) [Example 574], the IC50 was determined as 1 nM at human TLR7, 0.58 nM on human TLR8 and 4.25 µM at human TLR9.

For `Cc1c(-c2[nH]c3ccc(C4CC5CN(CC#N)CC5C4)cc3c2C(C)C)cn2cnnc2c1C` (stereo not drawn) [Example 558], the IC50 against human TLR7 turned out to be 6 nM; against human TLR8, 117 nM; at human TLR9, 3.72 µM.

Turning to `Cc1cc(-c2[nH]c3ccc(C4CCCNC4)cc3c2C(C)C)ccn1` (stereo not drawn) [Example 185], the IC50 at human TLR7 was 18 nM; at human TLR8, 1.9 nM; at human TLR9, 1.24 µM.

As to `CCN(CC)CC(=O)NC1CCC(c2ccc3[nH]c(-c4cn5ncnc5c(C)c4C)c(C(C)C)c3c2)CC1` (stereo not drawn) [Example 126], the IC50 at human TLR7 is 0.51 nM; on human TLR8, 2.3 nM; on human TLR9, > 50 µM.

Consider `COc1ccc(CNC2CCC(c3ccc4[nH]c(-c5cc(C)nc(C)c5)c(C(C)C)c4c3)CC2)cc1` (single isomer, unassigned) [Example 49], for which the IC50 at human TLR7 amounted to 7 nM; against human TLR8 it was 22 nM; against human TLR9 it was 0.391 µM.

Regarding `Cc1cc(-c2[nH]c3ccc(C4CN(C)C(C)(C)CO4)cc3c2C(C)C)cn2ncnc12` (single isomer, unassigned) [Example 376, 2-(3-isopropyl-2-(8-methyl-[1,2,4]triazolo[1,5-a]pyridin-6-yl)-1H-indol-5-yl)-4,5,5-trimethylmorpholine], the figures for the half-inhibitory concentration (IC50) against human TLR7, on human TLR8 and against human TLR9 were 2 nM, 2.1 nM and 2.67 µM, respectively.

`COc1ccc(-c2[nH]c3ccc(C4CCCNC4)cc3c2C(C)C)cc1OC` (stereo not drawn) [Example 592]: the values for the IC50 at human TLR7, at human TLR8 and against human TLR9 were 31 nM, 10 nM and 1.47 µM, respectively.

With `Cc1cc(-c2[nH]c3ccc(CC4CCCN4CC(=O)N(C)C)cc3c2C(C)C)cn2ncnc12` (stereo not drawn) [Example 426], the IC50 at human TLR7 was found to be 2 nM; on human TLR8 it was 13 nM; against human TLR9 it was 11.2 µM.

Take `CNC(=O)CN1CC(c2ccc3[nH]c(-c4cc(C)c5ncnn5c4)c(C(C)C)c3c2)C1` [Example 260, 2-(3-(3-isopropyl-2-(8-methyl-[1,2,4]triazolo[1,5-a]pyridin-6-yl)-1H-indol-5-yl)azetidin-1-yl)-N-methylacetamide]: the IC50 against human TLR7 is 2 nM; against human TLR8, 3.9 nM; against human TLR9, 5.25 µM.

Take `Cc1cc(-c2[nH]c3ccc(C4CCC(N5CCC(F)(F)CC5)CC4)cc3c2C(C)C)cn(C)c1=O` (stereo not drawn) [Example 466]: the IC50 against human TLR7 was 32 nM; against human TLR8, 26 nM; against human TLR9, > 50 µM.

Turning to `CNC1CCC(c2ccc3[nH]c(-c4cn5ncnc5c(C)c4C)c(C(C)C)c3c2)CC1` (stereo not drawn) [Example 91], the IC50 on human TLR7 was determined as 0.86 nM; against human TLR8, 2.7 nM; against human TLR9, 2.7 µM.

For the molecule `COc1cc(-c2[nH]c3ccc(C4CCC(NC(C)=O)CC4)cc3c2C(C)C)cn2ncnc12` (single isomer, unassigned) [Example 115, N-(4-(3-isopropyl-2-(8-methoxy-[1,2,4]triazolo[1,5-a]pyridin-6-yl)-1H-indol-5-yl)cyclohexyl)acetamide], the IC50 at human TLR7 turned out to be 1 nM; against human TLR8, 13 nM; against human TLR9 it was 16.1 µM.

For the molecule `Cc1cc(-c2[nH]c3ccc(C4CCCN(CC(=O)N(C)C)C4)cc3c2C(C)C)cc(C)n1` (stereo not drawn) [Example 235], the IC50 against human TLR7 turned out to be 40 nM; at human TLR8 it was 12 nM; against human TLR9 it was 0.693 µM.

The values are drawn from US11878975B2, “Substituted indole compounds useful as TLR inhibitors” (BRISTOL-MYERS SQUIBB COMPANY, priority 2017, dated 2024).
